Details: 323.14 K, Liquid, Vibrating tube method

CCCCCCC(=O)OCC(COC(=O)CCCCCC)(COC(=O)CCCCCC)COC(=O)CCCCCC [pentaerythritol tetraheptanoate]
Details | mass density [kg/m3]
141.6 kPa | 955.8
142.1 kPa | 955.7
142.7 kPa | 955.7
143.5 kPa | 955.7
146.5 kPa | 955.7
148.2 kPa | 955.7
149.1 kPa | 955.7
149.8 kPa | 955.7
150.7 kPa | 955.7
151.7 kPa | 955.7
160.6 kPa | 955.8
191.9 kPa | 955.7
198.5 kPa | 955.7
199.7 kPa | 955.7
201.6 kPa | 955.8
203.3 kPa | 955.6
206.3 kPa | 955.6
208.7 kPa | 955.6
211.5 kPa | 955.7
213.8 kPa | 955.8
216.2 kPa | 955.6
219 kPa | 955.8
222.1 kPa | 955.7
224.9 kPa | 955.7
228.5 kPa | 955.7
231.8 kPa | 955.6
234.6 kPa | 955.7
237.8 kPa | 955.7
248.7 kPa | 955.8
252.3 kPa | 955.7
256.9 kPa | 955.6
260.9 kPa | 955.8
269.9 kPa | 955.8
274.2 kPa | 955.7
279.5 kPa | 955.8
284.3 kPa | 955.8
289.2 kPa | 955.7
294.6 kPa | 955.8
300.8 kPa | 955.7
306.2 kPa | 955.9
313.2 kPa | 955.9
325.7 kPa | 955.8
332.1 kPa | 955.9
355.4 kPa | 955.9
382.3 kPa | 955.9
391.6 kPa | 956
402.9 kPa | 955.9
412.9 kPa | 955.8
423.9 kPa | 955.8
437.3 kPa | 955.8
478.1 kPa | 956
585.3 kPa | 955.9
606 kPa | 955.9
632.9 kPa | 956
657.4 kPa | 955.9
683.2 kPa | 956
747.4 kPa | 956.1
859.8 kPa | 956
901.9 kPa | 956.1
946 kPa | 956.2
1003.2 kPa | 956.3
1051.3 kPa | 956.3
1084.8 kPa | 956.4
1163.8 kPa | 956.3
1174 kPa | 956.4
1215.6 kPa | 956.4
1248.5 kPa | 956.5
1269 kPa | 956.4
1336.1 kPa | 956.5
1342 kPa | 956.5
1347.9 kPa | 956.5
1355 kPa | 956.5
1360.7 kPa | 956.6
1366.8 kPa | 956.5
1374.4 kPa | 956.5
1380.5 kPa | 956.5
1386.8 kPa | 956.6
1393.9 kPa | 956.6
1400.3 kPa | 956.5
1406.6 kPa | 956.7
1414.7 kPa | 956.6
1515.9 kPa | 956.7
1530.9 kPa | 956.7
1537.8 kPa | 956.7
1547 kPa | 956.7
1554.5 kPa | 956.7
1561.9 kPa | 956.7
1571 kPa | 956.8
1578.6 kPa | 956.7
1586.4 kPa | 956.6
1596.1 kPa | 956.6
1604 kPa | 956.7
1612.1 kPa | 956.7
1637.6 kPa | 956.7
1645.8 kPa | 956.8
1655.5 kPa | 956.8
1664.2 kPa | 956.7
1672.2 kPa | 956.7
1680.7 kPa | 956.8
1690.9 kPa | 956.8
1699.8 kPa | 956.8
1708.3 kPa | 956.8
1756.9 kPa | 956.8
1766.2 kPa | 956.7
1784.8 kPa | 956.7
1795.8 kPa | 956.8
1805 kPa | 956.9
1816.8 kPa | 956.8
1826.5 kPa | 956.8
1836.5 kPa | 956.8
1847 kPa | 956.8
1857.2 kPa | 957

Reference: the NIST ThermoML archive (doi:10.1021/je060271a)
